Reference: US20210038730A1, “PEPTIDE NANOFIBERS” (UNIVERSITY OF PORTSMOUTH HIGHER EDUCATION CORPORATION, priority 2018, published 2021)

Experiments:
[1] = Enzymatic stability in rat brain homogenates; conditions: 50% (v/v) rat brain homogenates
[2] = Release from 3D printed cellulose-sodium alginate bioinks; format: physicochemical; conditions: PBS
Protocol: Peptide nanofibers were embedded in cellulose nanocrystals and sodium alginate hydrogels. Cellulose nanocrystals were synthesised by sulphuric acid degradation (45% w/v, 150 mls) of cellulose (15 g, Western Hemlock) at 50° C. over 90 minutes under stirring. Cold-deionised water was used to quench reaction and acid was removed by centrifugation (4,000 rpm, 10 minutes). Cellulose nanocrystals were dialysed (12-14 kDa for cytochrome C, Medicell Ltd) over 5 L with 6 changes over 24 hours. Resulting suspension was probe sonicated (400 watt, 23% amplitude, 10 minutes) in 50 mLs aliquots. The resulting suspension was centrifuged (4,000 rpm, 10 minutes) and supernatant was stored in the refrigerator. Cellulose nanocrystals (CNCs, 4.5% w/w, 2 g) were loaded onto a syringe attached to a three-way valve, where a syringe loaded sodium alginate (6% w/w in 4.6% glucose, 1.7 g). The CNCs were injected in the sodium alginate syringe and mixed 10 times (in each direction). Sample was collected in one syringe and a new syringe containing calcium chloride (0.1M, 0.9 mL). Sample was pushed into calcium chloride and mixed 5 times (in each direction) prior collecting the gel in one syringe and loading in cartridges. Peptide nanofibers (5 mg) were dispersed in 0.9 mL of 0.1M calcium chloride and mixed as above when needed. Release of paclitaxel loaded and TPGnRH gels in PBS (1×, 7.4, 6 mLs) was quantified as per HPLC method described previously (Example 7, Table 2). After an initial burst release, a controlled release profile is observed with gradual slow release over days. Resulting inks can be utilised for the production of nanofiber loaded implants for tumour patients.

[3] = test system: SC-1800 cells; assay: Cytotoxicity (MTT) in cerebral astrocytes; format: cell-based, human; conditions: 3.5-140 μM, 4 and 24 hours
Protocol: Human brain microvessel endothelial cells (hCMEC/D3) and cerebral astrocytes (SC-1800) were maintained in a humidified atmosphere of 5% CO2, and the medium was refreshed every 2-3 days. hCMEC/D3 cells were cultured in endothelial basal medium-2 (EBM-2) supplemented with the EGM-2 Bullet Kit and 2% (v/v) human serum. SC-1800 were cultured in astrocytes basal medium (ABM) supplemented with AGM Bullet Kit and 3% (v/v) human serum. […] Subsequently, complete growth medium (4 mL) was added and cells were centrifuged using a C-28A centrifuge (Boeco, Hamburg, Germany) at 1,000 rpm for 5 minutes. Supernatant was discarded, and pellet was re-suspended in 1 mL of medium. The cell number was counted using Trypan Blue Exclusion Assay in the Countess II Automated Cell Counter (Thermo Scientific, Paisley, UK). hCMEC/D3 and SC-1800 cells were seeded at 20,000 cells/cm^2 in complete medium and allowed to attach overnight. […] Cell metabolic activity was measured after 4 and 24 hours using (3-(4,5)-dimethylthiazol-2-yl)-2,5-diphenyltetrazolium bromide ([…]) assay. […] Subsequently, DMSO (100 μL) was added to dissolve the formazan crystals and absorbance was measured at 570 and 690 nm. Metabolic activity was calculated by subtracting the absorbance values at 690 nm to 570 nm to remove background, and dividing the values by the control to express as a percentage (%) of the control using the equation below. […]

[4] = Enzymatic stability in rat liver homogenates; conditions: 50% (v/v) rat liver homogenates
Protocol: Fresh blood, obtained from adult male Wistar rats, was collected in sterile the 170 I.U. lithium heparin-coated tubes (Vacutainer, BD Bioscience, UK). Blood was centrifuged immediately at 2,000 g for 15 minutes (4° C.) and supernatant was collected and diluted to 50% (v/v) with PBS. Livers and brains were obtained from adult male Wistar rats, and the tissues were blotted to dryness, weighed, sliced into pieces, and homogenised with ice-cold PBS (in 2 mL of buffer g^−1 of tissue) using the glass homogeniser. Then, tissue homogenates were centrifuged at 4,300 g for 1 hour (4° C.) and the supernatants collected. Glioblastoma cell homogenates were prepared using U-87 MG cells. Cells were cultured in Eagle's Minimum Essential Medium (EMEM) supplemented with 10% (v/v) heat-inactivated fetal bovine serum (FBS), 1% (v/v) of non-essential amino acids (NEAA) and 1 mM of sodium pyruvate in T75 flasks with a surface area of 75 cm^2 and maintained in a humidified atmosphere of 5% CO2 at 37° C. Breast cancer cell homogenates were prepared using MDA-MB-231 cells. Cells were cultured in Dulbecco's Modified Eagle Medium (DMEM) supplemented with high levels of glucose (4.5 g/L), 10% (v/v) heat-inactivated fetal bovine serum (FBS), 1% (v/v) of non-essential amino acids (NEAA) and penicillin and streptomycin (500 units/mL) in T75 flasks with a surface area of 75 cm^2 and maintained in a humidified atmosphere of 5% CO2 at 37° C. Media was changed for both cell lines every 3 to 4 days. After reaching confluence, cells were washed twice with Hank's Balanced Salt Solution (HBSS) and incubated with ˜2 mL of TrypLE Enzyme at 37° C. for ˜3 minutes. Then, complete media were added, and cells were centrifuged at 1,000 rpm for 5 minutes in C-28A centrifuge (Boeco, Germany). U-87 MG or MDA-MB-231 cells (˜10×10^6 cells mL^−1) were re-suspended in ice-cold PBS, and homogenised with a 2×5 second pulses with the probe sonicator (UP200S Ultrasonic processor, SciMed, 200 watts, amplitude of 60%). Cell debris were removed by centrifugation at 2,000 rpm for 5 minutes (Jouan B4i, Thermo Scientific, Paisley, UK). Supernatant was collected and stored at −80° C. Total protein concentration in the homogenates was determined using the Bradford assay with bovine serum albumin as a standard. Diluted plasma, tissue or cell homogenates were pre-warmed during ˜30 minutes at 37° C. Peptide stock solutions (Glu-GnRH, goserelin acetate and TPGnRH, 5 mM in PBS, 500 μL) were prepared and added to the homogenate solutions (120 μL). PAX-loaded nanofibers prepared at a ratio of 1:7.36 [PAX:TPGnRH consisting of 3 μmol (2.56 mg mL^−1) of PAX, 22.02 μmol (31.46 mg mL^−1) of TPGnRH], as previously described, and further diluted in PBS to achieve a concentration of 5 mM of TPGnRH and 500 nM of PAX (120 μL) were added to the homogenates. At various time intervals, an aliquot was collected (80 μL) and added to ice-cold ACN (80 μL) to quench the enzymatic activity. Samples were stored at −80° C. for at least 3 hours to maximise protein precipitation. Samples were vortexed for 15 minutes, centrifuged for 15 minutes at 12,000 rpm, and the supernatants were collected and analysed by RP-HPLC.

[5] = target: T1, GnRH-R on U-87 MG cells (Homo sapiens, UniProt P30968); assay: SMFS blocking experiments with free GnRH-R ligands; format: binding
T1 construct: endogenous in cells; host or cells: U-87 MG
T1 sequence (P30968 1-328): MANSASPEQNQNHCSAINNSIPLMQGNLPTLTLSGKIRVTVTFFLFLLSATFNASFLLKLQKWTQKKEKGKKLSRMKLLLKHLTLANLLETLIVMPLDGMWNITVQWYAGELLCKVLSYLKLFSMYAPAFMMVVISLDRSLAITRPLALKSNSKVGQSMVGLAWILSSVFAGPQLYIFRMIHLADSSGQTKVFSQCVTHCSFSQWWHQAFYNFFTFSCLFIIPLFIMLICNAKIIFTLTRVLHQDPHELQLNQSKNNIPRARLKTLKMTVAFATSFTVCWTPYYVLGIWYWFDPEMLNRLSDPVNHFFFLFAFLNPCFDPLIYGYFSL
Protocol: Blocking experiments were performed with different GnRH-R ligands (anti-GnRH-R antibody, Glu-GnRH, goserelin acetate, and TPGnRH). U-87 MG cells were analysed with tips functionalised with TPGnRH nanofibers and then the free ligands were added at a final concentration of 1 μg mL^−1 (anti-GnRH-R antibody) or 50 μg mL^−1 (Glu-GnRH, goserelin acetate and TPGnRH). U-87 MG cells treated with ligands were incubated for, at least, one hour at room temperature, and then the same cells were analysed with the same TPGnRH-functionalised tip at the same location in the cell.

CCCCCCCCCCCCCCCC(=O)Oc1ccc(C[C@H](NC(=O)[C@H](CO)NC(=O)[C@H](Cc2c[nH]c3ccccc23)NC(=O)[C@H](Cc2c[nH]cn2)NC(=O)[C@@H](N)CCC(=O)O)C(=O)NCC(=O)N[C@@H](CC(C)C)C(=O)N[C@@H](CCCNC(=N)N)C(=O)N2CCC[C@H]2C(=O)NCC(N)=O)cc1 [TPGnRH, Tyrosine (O-Palmitoyl)-Glu-GnRH]
k ([1]; analyte in brackets of label): 0.1781 min⁻¹
remaining at 8 h, 4.03 mM ([1]; male, Wistar, rat): > 80%
% release from 3D printed bioink ([2]; 0 minutes): 0%
% release from 3D printed bioink ([2]; 1 minutes): 15.4 ± 9.6%
% release from 3D printed bioink ([2]; 5 minutes): 15.4 ± 7.8%
% release from 3D printed bioink ([2]; 10 minutes): 16.3 ± 11.5%
% release from 3D printed bioink ([2]; 15 minutes): 15.4 ± 4.6%
% release from 3D printed bioink ([2]; 30 minutes): 16.4 ± 4.9%
% release from 3D printed bioink ([2]; 45 minutes): 14.7 ± 6.9%
% release from 3D printed bioink ([2]; 60 minutes): 19.7 ± 8.5%
% release from 3D printed bioink ([2]; 90 minutes): 20.6 ± 4.6%
% release from 3D printed bioink ([2]; 120 minutes): 21.8 ± 9.4%
% release from 3D printed bioink ([2]; 240 minutes): 20.6 ± 10.7%
% release from 3D printed bioink ([2]; 360 minutes): 22.6 ± 7.4%
% release from 3D printed bioink ([2]; 1110 minutes): 24.5 ± 7.9%
% release from 3D printed bioink ([2]; 1440 minutes): 28.5 ± 9.8%
% release from 3D printed bioink ([2]; 2760 minutes): 32.1 ± 9.7%
cytotoxicity (metabolic activity, MTT) [3]: no cytotoxicity
Plateau ([4]; analyte in brackets of label): 359.3 µg/mL
kα ([4]; analyte in brackets of label): 0.1678 min⁻¹
kβ ([4]; analyte in brackets of label): 0.005339 min⁻¹
remaining at 8 h, 4.03 mM ([4]; male, Wistar, rat): ~50%
Binding Probability of TPGnRH nanofiber tip to U-87 MG cells ([5]; after pre-incubation with the free ligand named as label (antibody 1 μg mL^−1, peptides 50 μg mL^−1)): 4.5%
Binding Probability of TPGnRH nanofiber tip to U-87 MG cells ([5]; before addition of the free ligand named as label (no pre-incubation)): 14.7%
